Four compounds from US20240166599A1, “INDOLE DERIVATIVES AS SEROTONERGIC AGENTS USEFUL FOR THE TREATMENT OF DISORDERS RELATED THERETO” (Mindset Pharma Inc., priority 2021, published 2024) can be followed below.

pEC50, pIC50: −log10 of the molar value.

For data set [1], the target named is T1, human 5-HT2A (h5-HT2A) receptor (Homo sapiens, UniProt P28223).
T1 construct: expressed in transfected cells
As to the kind of experiment: FLIPR assay, human 5-HT2A, agonist mode. In kind it is cell-based. As to the method:
I.c. Experimental Methods and Procedures: • 1. […] One day before the assays, the cells were detached using TrypLE™ Express and cells were counted using cell counter. […] 20000 cells/well were seeded in 30 μl/well culture medium to a 384-well cell plate and cells were incubated overnight at 37° C., 5% (v/v) CO2. • 4. On the assay day, 2×dye solution was prepared following the manual of the FLIPR® Calcium 6 Assay Kit: i. The dye was diluted with assay buffer (20 mM HEPES in 1×HBSS, PH7.4); ii. Probenecid was added to the final concentration of 5 mM; iii. […] Medium was removed from cell plate by flicking the cell plate on towel papers. • 6. […] The cell plate was placed on plate shaker, the plate was agitated at 600 rpm for 2 minutes. The plate was incubated at 37° C. for 2 hours followed by additional 15-minute incubation at 25° C. • 8. 3×compound in assay buffer was prepared: a. Reference compounds were diluted to required concentration with DMSO. The compounds were added to a 384-well compound plate; b. Serial dilutions were performed; c. 10 mM test compounds were added to the compound plate, and 3-fold serial dilutions were performed. d. […] Add 20 μl/well assay buffer to the compound plate; f. […] The cell plate, compound plate and tips were put into FLIPR, 10 μl of 3× compound was transferred to the cell plate per well with FLIPR.
• i. […] Calculated the percentage activation by using following equation: […]

Data set [2] concerns the target human 5-HT2A receptor (Homo sapiens, UniProt P28223). As to the kind of experiment: biochemical.
Description: Human 5-HT2A: Radioligand Binding Assay:
II.3 Experiment Procedure: • i. Prepared the assay buffer following the table below;
• ii. Preparation of 8 doses of reference and test compounds starting from 10 mM stock solution as requested by 5-fold serial dilutions with 100%; • iii. Prepared (v/v) DMSO: a. 50 μl/well of 0.5% (v/v) PEI was added to UniFilter-96 GF/B plates. The plates were sealed and incubates at 4° C. for 3 hrs; b. After incubation, the plates were washed 3 times with ice-cold wash buffer (50 mM Tris, pH7.4); • iv. Preparation of assay plates: a. Cell membrane were diluted with assay buffer and 330 μl/well was added to 96 round deep well plates to reach a concentration of 20 μg/well; b. 8 concentrations of reference or test compounds were prepared and 110 μl/well was added to 96 round deep well plates; c. [3H]-ketanserin was diluted with assay buffer to 5 nM (5× final concentration) and 110 μl/well was added to 96 round deep well plates. • v. The plate was centrifuged at 1000 rpm for 30 secs and then agitated at 600 rpm, R.T. for 5 min. • vi. The plates were sealed and incubates at 27° C. for 90 min. • vii. The incubation was stopped by vacuum filtration onto GF/B filter plates followed by 4 times washing with ice-cold wash buffer (50 mM Tris, pH7.4). • viii. […] The filter plates were sealed and 40 μl/well of scintillation cocktail was added. • x. The plate was read by using a Microbeta2 microplate counter.
For reference and test compounds, the results are expressed as % Inhibition, using the normalization equation: N=100−100×(U−C2)/(C1−C2), where U is the unknown value, C1 is the average of high controls, and C2 is the average of low controls.
Data set [3] is described as follows: Liver microsomes stability, human. The note with it: for Remaining Percentage (%) after 60 min, Human: human liver microsomes with NADPH, 2 μM; for half-life at 2 μM / microsomal CLint at 2 μM: human, microsomes. As to the method: (§1) The objective of this study was to estimate in vitro metabolic stability of representative compounds of the application in pooled human and male mouse liver microsomes. The concentrations of parent compounds in reaction systems were evaluated by LC-MS/MS for estimating the stability in pooled human and male mouse liver microsomes. The in vitro intrinsic clearances of test compounds were determined as well.
(§2) A master solution in the “Incubation Plate” containing phosphate buffer, ultra-pure H2O, MgCl2 solution and liver microsomes was made according to Table 3. The mixture was pre-warmed at 37° C. water bath for 5 minutes.
(§3) 40 μL of 10 mM NADPH solution was added to each well. The final concentration of NADPH was 1 mM. The negative control samples were prepared by replacing NADPH with 40 μL of ultra-pure H2O. Samples were prepared in duplicate. Negative controls were prepared in singlet.
(§4) The reaction was started with the addition of 4 μL of 200 μM test compounds or control compounds to each master solution to get the final concentration of 2 μM. This study was performed in duplicate.
(§5) Aliquots of 50 μL were taken from the reaction solution at 0, 15, 30, 45 and 60 minutes. The reaction solutions were stopped by the addition of 4 volumes of cold methanol with IS (100 nM alprazolam, 200 nM imipramine, 200 nM labetalol and 2 μM ketoprofen). Samples were centrifuged at 3,220 g for 40 minutes. Aliquot of 90 μL of the supernatant was mixed with 90 μL of ultra-pure H2O and then was used for LC-MS/MS analysis.
(§6) LC/MS analysis was performed for all samples from this study using a Shimadzu liquid chromatograph separation system equipped with degasser DGU-20A5R; solvent delivery unit LC-30AD; system controller SIL-30AC; column oven CTO-30A; CTC Analytics HTC PAL System. Mass spectrometric analysis was performed using an Triple Quad™ 5500 instrument.
(§7) All calculations were carried out using Microsoft Excel. Peak areas were determined from extracted ion chromatograms. The slope value, k, was determined by linear regression of the natural logarithm of the remaining percentage of the parent drug vs. incubation time curve.
(§8) The in vitro half-life (in vitro t1/2) was determined from the slope value:
(§9) Conversion of the in vitro t1/2 (min) into the in vitro intrinsic clearance (in vitro CLint, in μL/min/mg proteins) was done using the following equation (mean of duplicate determinations): […]

Data set [4] can be described thus: Liver microsomes stability, mouse. The note with it: for half-life at 2 μM / microsomal CLint at 2 μM: male, mouse, microsomes; for Remaining Percentage (%) after 60 min, Mouse: mouse liver microsomes with NADPH, 2 μM. The protocol:
as §1, §2, §3, §4, §5, §6, §7, §8, §9

Data set [5] in a line: Liver microsomes stability, rat. Particulars: for Remaining Percentage (%) after 60 min, Rat: rat liver microsomes with NADPH, 2 μM; for half-life at 2 μM / microsomal CLint at 2 μM: rat, microsomes.

human 5-HT2A receptor, sequence (P28223 whole entry): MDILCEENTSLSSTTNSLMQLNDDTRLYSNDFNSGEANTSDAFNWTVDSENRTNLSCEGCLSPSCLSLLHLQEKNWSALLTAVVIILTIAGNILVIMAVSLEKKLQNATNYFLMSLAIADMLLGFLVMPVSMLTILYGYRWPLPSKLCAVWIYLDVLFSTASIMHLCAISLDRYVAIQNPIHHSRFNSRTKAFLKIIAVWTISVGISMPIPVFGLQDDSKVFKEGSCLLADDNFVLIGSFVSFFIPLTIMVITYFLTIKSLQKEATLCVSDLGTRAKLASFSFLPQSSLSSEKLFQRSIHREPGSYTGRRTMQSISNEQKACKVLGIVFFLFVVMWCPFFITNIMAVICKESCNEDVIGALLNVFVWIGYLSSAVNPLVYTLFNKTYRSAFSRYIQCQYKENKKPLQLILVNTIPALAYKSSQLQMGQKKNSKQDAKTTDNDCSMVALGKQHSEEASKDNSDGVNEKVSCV
T1 sequence (P28223 whole entry): as above

As for `CN(C)CCc1c[nH]c2ccccc12` [DMT, N,N-dimethyltryptamine, reference compound], the pEC50 in data set [1] is above 6.00. The pIC50 in data set [2] is above 6.30.
Regarding `[2H]C([2H])([2H])N(C([2H])([2H])[2H])C([2H])([2H])C([2H])([2H])c1c[nH]c2ccccc12` [I-A-1, 2-(1H-indol-3-yl)-N,N-bis(methyl-d3)ethan-1-amine-1,1,2,2-d4], the pEC50 in data set [1] is above 6.00. Also, in data set [3], the “Remaining Percentage (%) after 60 min, Human” value is listed as 0.46%; the half-life at 2 μM was 7.73 min; the intrinsic metabolic clearance (microsomal CLint) at 2 μM was determined as 19 µL/min/mg. Further, in data set [4], the half-life at 2 μM stood at 87.2 min; the microsomal CLint at 2 μM turned out to be 39.2 µL/min/mg; the “Remaining Percentage (%) after 60 min, Mouse” value was determined as 62.07%. The pIC50 in data set [2] was above 6.30. Further, in data set [5], the “Remaining Percentage (%) after 60 min, Rat” value worked out at 9.38%; the half-life at 2 μM amounted to 17.6 min; the microsomal CLint at 2 μM was 39.7 µL/min/mg.
`[2H]C([2H])([2H])Oc1ccc2[nH]cc(C([2H])([2H])C([2H])([2H])N(C([2H])([2H])[2H])C([2H])([2H])[2H])c2c1` [I-A-6, 2-(5-(methoxy-d3)-1H-indol-3-yl)-N,N-bis(methyl-d3)ethan-1-amine-1,1,2,2-d4]: in data set [3], the “Remaining Percentage (%) after 60 min, Human” value worked out at 15.50%; the half-life at 2 μM is 2.3 min; the microsomal CLint at 2 μM stood at 16.4 µL/min/mg. In data set [4], the half-life at 2 μM was 97.5 min; the microsomal CLint at 2 μM amounted to 36.8 µL/min/mg; the “Remaining Percentage (%) after 60 min, Mouse” value was 65.29%. Besides, in data set [5], the “Remaining Percentage (%) after 60 min, Rat” value is 5.25%; the half-life at 2 μM is 9.88 min; the microsomal CLint at 2 μM was found to be 9.26 µL/min/mg.
In data set [1], `[2H]c1[nH]c2c([2H])c([2H])c([2H])c([2H])c2c1CCN(C)C` [I-A-2, 2-(1H-indol-3-yl-2,4,5,6,7-d5)-N,N-dimethylethan-1-amine] showed a pEC50 above 6.00. In data set [3], the “Remaining Percentage (%) after 60 min, Human” value stood at 0.76%; the half-life at 2 μM was 8.52 min; the microsomal CLint at 2 μM was found to be 18.8 µL/min/mg. Also, in data set [4], the half-life at 2 μM is 17.4 min; the microsomal CLint at 2 μM worked out at 41.2 µL/min/mg; the “Remaining Percentage (%) after 60 min, Mouse” value is reported as 59.38%. For the same compound, in data set [2], the pIC50 is above 6.30. In data set [5], the “Remaining Percentage (%) after 60 min, Rat” value was 17.65%; the half-life at 2 μM amounted to 24 min; the microsomal CLint at 2 μM turned out to be 36 µL/min/mg.
